Drawing on patent publication US9765087B2, “Benzimidazole derivatives” (ENANTA PHARMACEUTICALS, INC., priority 2009, dated 2017), this text covers EC50 for 31 compounds.

A word on the EC50: it is the concentration at which the effect is half-maximal.

Structures are written as SMILES.

This test concerns HCV 1b genotype replicon. The experiment in a line: HCV replicon assay (qRT-PCR or luciferase), genotype 1b. The note with it: Hepatitis C virus, Table 11, qRT-PCR or luciferase assay, read-out: Genotype-1b replicon EC50 Range. The test is classed as cell-based. From the text:
HCV replicon cell lines (kindly provided by R. Bartenschlager) isolated from colonies as described by Lohman et. al. (Lohman et al. (1999) Science 285: 110-113, expressly incorporated by reference in its entirety) and used for all experiments. The HCV replicon has the nucleic acid sequence set forth in EMBL Accession No.: AJ242651, the coding sequence of which is from nucleotides 1801 to 8406.
The coding sequence of the published HCV replicon was synthesized and subsequently assembled in a modified plasmid pBR322 (Promega, Madison, Wis.) using standard molecular biology techniques. One replicon cell line (“SGR 11-7”) stably expresses HCV replicon RNA which consists of (i) the HCV 5′UTR fused to the first 12 amino acids of the capsid protein, (ii) the neomycin phosphotransferase gene (neo), (iii) the IRES from encephalomyocarditis virus (EMCV), and (iv) HCV […] to NSSB genes and the HCV 3′UTR. Another replicon cell line (“Huh-luc/neo-ET”) described by Vrolijk et. al. (Vrolijk et. al. (2003) Journal of Virological Methods 110:201-209, expressly incorporated by reference in its entirety) stably expresses HCV replicon RNA which consists of (i) the HCV 5′UTR fused to the first 12 amino acids of the capsid protein, (ii) the firefly luciferase reporter gene, (iii) the ubiquitin gene, (iv) the neomycin phosphotransferase gene (neo), (v) the IRES from encephalomyocarditis virus (EMCV), and (vi) HCV NS3 to NS5B genes that harbor cell culture adaptive mutations (E1202G, T1280I, K1846T) and the HCV 3′UTR.
These cell lines were maintained at 37° C., 5% CO2, 100% relative humidity in DMEM (Cat#11965-084, Invitrogen), with 10% fetal calf serum (“FCS”, Invitrogen), 1% non-essential amino acids (Invitrogen), 1% of Glutamax (Invitrogen), 1% of 100× penicillin/streptomycin (Cat#15140-122, Invitrogen) and Geneticin (Cat#10131-027, Invitrogen) at 0.75 mg/ml or 0.5 mg/ml for 11-7 and Huh-luc/neo-ET cells, respectively.
EC50 values of single agent compounds and combinations were determined by HCV RNA detection using quantitative RT-PCR, according to the manufacturer's instructions, with a TAQMAN® One-Step RT-PCR Master Mix Reagents Kit (Cat#AB 4309169, Applied Biosystems) on an ABI Model 7500 thermocycler. The TaqMan primers used for detecting and quantifying HCV RNA were obtained from Integrated DNA Technologies. HCV RNA was normalized to GAPDH RNA levels in drug-treated cells, which is detected and quantified using the Human GAPDH Endogenous Control Mix (Applied Biosystems, AB 4310884E). Total cellular RNA is purified from 96-well plates using the RNAqueous 96 kit (Ambion, Cat# AM1812). Chemical agent cytotoxicity is evaluated using an MTS assay according to the manufacturer's directions (Promega).
Since clinical drug resistance often develops in viral infections following single agent therapies, there is a need to assess the additive, antagonistic, or synergistic properties of combination therapies. We used the HCV replicon system to assess the potential use of the compound of the present invention or in combination therapies with Interferon alpha, cyclosporine analogs and inhibitors targeting other HCV proteins. The acute effects of a single or combinations of drugs are studied in the “Huh-luc/neo-ET” replicon with each chemical agent titrated in an X or Y direction in a 6 point two-fold dilution curve centered around the EC50 of each drug. Briefly, replicon cells are seeded at 7,000 cells per well in 90 ul DMEM (without phenol red, Invitrogen Cat.#31053-036) per well with 10% FCS, 1% non-essential amino acids, 1% of Glutamax and 1% of 100× penicillin/streptomycin and incubated overnight at 37° C., 5% CO2, 100% relative humidity. […]
`COC(=O)N[C@@H](C(=O)N1CCC[C@H]1c1nc(-c2ccc(C#Cc3ccc4[nH]c([C@@H]5CCCN5C(=O)[C@H](NC(=O)OC)c5ccccc5)nc4c3)cc2)c[nH]1)c1ccccc1` [Example 2-1]: the EC50 was < 1 nM.
`COC(=O)N[C@@H](C(=O)N1CCC[C@H]1c1ncc(-c2ccc(CCc3ccc4nc([C@@H]5CCCN5C(=O)[C@H](NC(=O)OC)c5ccccc5)[nH]c4c3)cc2)[nH]1)c1ccccc1` [Example 2-2]: the EC50 is < 1 nM.
The figure for `COC(=O)N[C@@H](C(=O)N1CCC[C@H]1c1ncc(-c2ccc(-c3ccc4[nH]c([C@@H]5CCCN5C(=O)[C@H](NC(=O)OC)c5ccccc5)nc4c3)cc2)[nH]1)c1ccccc1` [Example 2] is < 1 nM; for `COC(=O)N[C@@H](C(=O)N1CCC[C@H]1c1nc(-c2ccc(/C=C/c3ccc4[nH]c([C@@H]5CCCN5C(=O)[C@H](NC(=O)OC)c5ccccc5)nc4c3)cc2)c[nH]1)c1ccccc1` [Example 357] it is < 1 nM.
Consider `COC(=O)N[C@@H](C(=O)N1CCC[C@H]1c1nc(-c2ccc(C#Cc3ccc4[nH]c([C@@H]5CCCN5C(=O)[C@H](NC(=O)OC)c5ccccc5)nc4c3)cc2)n[nH]1)c1ccccc1` [Example 442], for which the EC50 was < 1 nM.
`COC(=O)N[C@@H](C(=O)N1CCC[C@H]1c1nc(-c2ccc(CCc3ccc4[nH]c([C@@H]5CCCN5C(=O)[C@H](NC(=O)OC)c5ccccc5)nc4c3)cc2)n[nH]1)c1ccccc1` [Example 443]: the EC50 is < 1 nM.
Regarding `COC(=O)N[C@@H](C(=O)N1CCC[C@H]1c1cc(-c2ccc(C#Cc3ccc4[nH]c([C@@H]5CCCN5C(=O)[C@H](NC(=O)OC)c5ccccc5)nc4c3)cc2)n[nH]1)c1ccccc1` [Example 445], the EC50 was < 1 nM.
Turning to `COC(=O)N[C@@H](C(=O)N1CCC[C@H]1c1cc(-c2ccc(CCc3ccc4[nH]c([C@@H]5CCCN5C(=O)[C@H](NC(=O)OC)c5ccccc5)nc4c3)cc2)n[nH]1)c1ccccc1` [Example 446], the EC50 is < 1 nM.
Consider `COC(=O)N[C@H](C(=O)N1CCC[C@H]1c1ncc(-c2ccc(CCCc3ccc4[nH]c([C@@H]5CCCN5C(=O)[C@@H](NC(=O)OC)C(C)C)nc4c3)cc2)[nH]1)C(C)C` [Example 449], for which the EC50 is < 1 nM.
Regarding `COC(=O)N[C@H](C(=O)N1CCC[C@H]1c1nc(-c2ccc(OCc3ccc4[nH]c([C@@H]5CCCN5C(=O)[C@@H](NC(=O)OC)C(C)C)nc4c3)cc2)c[nH]1)C(C)C` [Example 451], the EC50 is < 1 nM.
The figure for `COC(=O)N[C@H](C(=O)N1CCC[C@H]1c1nc(-c2ccc(/C=C/c3ccc4[nH]c([C@@H]5CCCN5C(=O)[C@@H](NC(=O)OC)C(C)C)nc4c3)s2)c[nH]1)C(C)C` [Example 453] is < 1 nM; for `COC(=O)N[C@H](C(=O)N1CCC[C@H]1c1nc(-c2ccc(CCc3ccc4nc([C@@H]5CCCN5C(=O)[C@@H](NC(=O)OC)C(C)C)[nH]c4c3)s2)c[nH]1)C(C)C` [Example 454] it is < 1 nM; for `COC(=O)N[C@H](C(=O)N1CCC[C@H]1c1nc(-c2ccc(CCCc3ccc4[nH]c([C@@H]5CCCN5C(=O)[C@@H](NC(=O)OC)C(C)C)nc4c3)s2)c[nH]1)C(C)C` [Example 457] it is < 1 nM.
For the compound `COC(=O)N[C@H](C(=O)N1CCC[C@H]1c1nc(-c2ccc3cc(-c4ccc5[nH]c([C@@H]6CCCN6C(=O)[C@@H](NC(=O)OC)C(C)C)nc5c4)ccc3c2)c[nH]1)C(C)C` [Example 459], the EC50 was < 1 nM.
For the compound `COC(=O)N[C@H](C(=O)N1CCC[C@H]1c1nc(-c2ccc3cc(-c4ccc5[nH]c([C@@H]6CCCN6C(=O)[C@@H](NC(=O)OC)[C@@H](C)OC)nc5c4)ccc3c2)c[nH]1)[C@@H](C)OC` [Example 460], the EC50 was < 1 nM.
With `COC(=O)N[C@H](C(=O)N1CCC[C@H]1c1nc(-c2ccc3cc(-c4ccc5[nH]c([C@@H]6CCCN6C(=O)[C@H](NC(=O)OC)c6ccccc6)nc5c4)ccc3c2)c[nH]1)[C@@H](C)OC` [Example 463], the EC50 is < 1 nM.
In the case of `COC(=O)N[C@H](C(=O)N1CCC[C@H]1c1nc2cc(-c3ccc4cc(-c5c[nH]c([C@@H]6CCCN6C(=O)[C@@H](NC(=O)OC)[C@@H](C)OC)n5)ccc4c3)ccc2[nH]1)C(C)C` [Example 464], the EC50 was < 1 nM.
Regarding `COC(=O)N[C@H](C(=O)N1CCC[C@H]1c1nc2cc(-c3ccc4cc(-c5c[nH]c([C@@H]6CCCN6C(=O)[C@@H](NC(=O)OC)[C@@H](C)OC)n5)ccc4c3)ccc2[nH]1)[C@@H](C)O` [Example 465], the EC50 was < 1 nM.
As for `CC[C@H](C)[C@H](NC(=O)OC)C(=O)N1CCC[C@H]1c1nc2cc(-c3ccc4cc(-c5c[nH]c([C@@H]6CCCN6C(=O)[C@@H](NC(=O)OC)[C@@H](C)OC)n5)ccc4c3)ccc2[nH]1` [Example 466], the figure is < 1 nM; as for `COC(=O)N[C@H](C(=O)N1CCC[C@H]1c1nc(C#Cc2ccc(-c3ccc4[nH]c([C@@H]5CCCN5C(=O)[C@@H](NC(=O)OC)C(C)C)nc4c3)cc2)c[nH]1)C(C)C` [Example 468], < 1 nM; as for `COC(=O)N[C@H](C(=O)N1CCC[C@H]1c1nc(CCc2ccc(-c3ccc4[nH]c([C@@H]5CCCN5C(=O)[C@@H](NC(=O)OC)C(C)C)nc4c3)cc2)c[nH]1)C(C)C` [Example 469], < 1 nM.
Turning to `COC(=O)N[C@H](C(=O)N1CCC[C@H]1c1nc(C#Cc2ccc3cc(-c4ccc5[nH]c([C@@H]6CCCN6C(=O)[C@@H](NC(=O)OC)C(C)C)nc5c4)ccc3c2)c[nH]1)C(C)C` [Example 471], the EC50 was < 1 nM.
As to `COC(=O)N[C@H](C(=O)N1CCC[C@H]1c1nc(CCc2ccc3cc(-c4ccc5[nH]c([C@@H]6CCCN6C(=O)[C@@H](NC(=O)OC)C(C)C)nc5c4)ccc3c2)c[nH]1)C(C)C` [Example 472], the EC50 is < 1 nM.
The figure for `COC(=O)N[C@H](C(=O)N1CCC[C@H]1c1nc(-c2ccc(C#Cc3ccc4[nH]c([C@@H]5CCCN5C(=O)[C@@H](NC(=O)OC)[C@@H](C)OC)nc4c3)cc2)c[nH]1)[C@@H](C)OC` [Example 473] is < 1 nM; for `COC(=O)N[C@H](C(=O)N1CCC[C@H]1c1nc(-c2ccc3cc(C#Cc4ccc5[nH]c([C@@H]6CCCN6C(=O)[C@@H](NC(=O)OC)C(C)C)nc5c4)ccc3c2)c[nH]1)C(C)C` [Example 475] it is < 1 nM; for `COC(=O)N[C@H](C(=O)N1CCC[C@H]1c1nc(-c2ccc3cc(/C=C/c4ccc5[nH]c([C@@H]6CCCN6C(=O)[C@@H](NC(=O)OC)C(C)C)nc5c4)ccc3c2)c[nH]1)C(C)C` [Example 477] it is < 1 nM.
In the case of `COC(=O)N[C@H](C(=O)NCc1nc(-c2ccc(C#Cc3ccc4[nH]c([C@@H]5CCCN5C(=O)[C@@H](NC(=O)OC)C(C)C)nc4c3)cc2)c[nH]1)C(C)C` [Example 479], the EC50 was < 1 nM.
Consider `COC(=O)N[C@H](C(=O)N1CCC[C@H]1c1nc(-c2ccc(C#Cc3ccc4[nH]c([C@@H]5CCCN5C(=O)[C@@H](OC(=O)OC)C(C)C)nc4c3)cc2)c[nH]1)C(C)C` [Example 480], for which the EC50 is < 1 nM.
The figure for `CCOC(=O)N[C@H](C(=O)N1CCC[C@H]1c1nc2cc(C#Cc3ccc(-c4c[nH]c([C@@H]5CCCN5C(=O)[C@@H](NC(=O)OC)C(C)C)n4)cc3)ccc2[nH]1)C(C)C` [Example 481] is < 1 nM; for `COC(=O)N[C@H](C(=O)N1CCC[C@H]1c1nc(-c2ccc(C#Cc3cc(F)c4[nH]c([C@@H]5CCCN5C(=O)[C@@H](NC(=O)OC)C(C)C)nc4c3)cc2)c[nH]1)C(C)C` [Example 483] it is < 1 nM.
Turning to `COC(=O)N[C@H](C(=O)N1CCC[C@H]1c1nc(-c2ccc(C#Cc3cc4nc([C@@H]5CCCN5C(=O)[C@@H](NC(=O)OC)C(C)C)[nH]c4cc3Cl)cc2)c[nH]1)C(C)C` [Example 485], the EC50 was < 1 nM.
